Source: patent US11028138B2, “Compositions and methods for using actin-based peptides to modulate cellular bioactivity and cellular susceptibility to intracellular pathogens” (priority 2016, dated 2021)

Legend:
[1] = test system: Influenza A virus (IAV); details: A549 cells; read-out: IC50, reduction of viral replication; cited from earlier work
[2] = test system: Influenza A virus (IAV); details: vs solvent-treated control mice; cited from earlier work
[3] = test system: HIV-1; details: dosages that did not affect CD4 T cell activation or induce cytotoxicity; cited from earlier work
[4] = test system: HIV-1; details: pretreatment; cited from earlier work
[5] = test system: Human T lymphoblast cell A3.01; test: N10-mediated cell killing, Propidium iodide and FITC-Annexin V staining, flow cytometry; type: cell-based; details: 10 uM; A3.01 cells
Description: FIG. 8: Human T lymphoblast cell A3.01 was treated with N10 (10 uM). N10-mediated cell killing was monitored by staining of dead cells with Propidium iodide and FITC-labelled Annexin V. Cells were analyzed by flow cytometry.
N10-mediated cell killing was monitored by staining of dead cells with Propidium iodide and FITC-labelled Annexin V. Cells were analyzed by flow cytometry.
• 5) Culture human A3.01 cells at 5×10^5 cells/ml • 6) Add peptide N10 to the cell to a final concentration of 10 uM • 7) Continue to culture cell at 37° C., maintain cell density below 1×10^6 cells/ml 8) Take out 1-2×10^5 cells, put on ice, add P.I., and FITC—Annexin V as recommended by the reagent manufacturer for dead/apoptotic cell staining. • 9) Analyzed the staining by flow cytometer.

[6] = test system: surface CXCR4 receptors; test: Surface receptor staining and flow cytometry after peptide stimulation (CXCR4); type: cell-based, human; details: T cells exposed to peptide, 10 uM, 5 to 120 min
Description: (§1) FIG. 4: Up-regulation of cell surface receptors by N7. CEM-SS T cells or blood resting CD4 T cells were stimulated with peptide N7 for a time course. Effects on surface CD4, CXCR4 density were measured by anti-CD4 or anti-CXCR4, followed by flow cytometry.
(§2) • 1) Culture human CEM-SS T cells at 5×10^5 cells/ml • 2) Add peptide N7 to the cell to a final concentration of 10 uM at various times from 5 min to 120 min (e. g. 5, 10, 15, 30, 45, 60, 120 min). • 3) Take out 1-2×10^5 cells, put on ice, perform routine surface staining using FITC-, PE- or PE-cy5-labelled specific antibodies against cell receptors as recommended by the reagent manufacturer for cell surface staining. • 4) Analyzed the staining by flow cytometer.

[7] = test system: surface CD4 receptor; test: Surface receptor staining and flow cytometry after peptide stimulation (CD4); type: cell-based, human; details: T cells exposed to peptide, 10 uM, 5 to 120 min
Description: as §1, §2

[8] = test system: cofilin; test: Cofilin phosphorylation by Western Blot in resting memory CD4 T cells; type: cell-based; details: time course
Description: (§3) FIG. 5: Peptide N7 and N9 modulate cell signal transduction and chemotactic cofilin and actin activity. (A) Resting memory CD4 T cells were treated with N7 for a time course, cofilin phosphorylation was measured by Western Blot. Total cofilin and GAPDH was also measured for loading control. (B) Resting CD4 T cells were treated with N9, and actin polmerization and depolymerization were measured by FITC-phalloidin staining.
(§4) Resting memory CD4 T cells were treated with N7 for a time course, and cofilin phosphorylation was measured by Western Blot. Total cofilin and GAPDH was also measured for loading control (FIG. 5A). Resting CD4 T cells were treated with N9, and actin polmerization and depolymerization were measured by FITC-phalloidin staining (FIG. 5B).

[9] = test system: actin; test: Actin polymerization and depolymerization by FITC-phalloidin staining in resting CD4 T cells; type: cell-based
Description: as §3, §4

[10] = test system: HIV; test: HIV DNA synthesis, 2-LTR circles and DNA integration in CEM-SS T cells and blood resting CD4 T cells; type: cell-based; details: for HIV DNA synthesis / HIV nuclear migration (2-LTR circles): peptide during 2 h infection; for HIV DNA integration: resting CD4 T cells, no T cell activation
Description: (§5) FIG. 6: Peptide N7 and N9 enhance HIV DNA synthesis, nuclear migration, and integration. (A) CEM-SS T cells were treated with N7 during HV infection for 2 hours, washed, and then analyzed for viral DNA synthesis and 2-LTR circles, a marker for HIV nuclear migration. (B) Blood resting CD4 T cells were similar infected, washed, and cultured without T cell activation. Viral DNA synthesis and DNA integration were analyzed.
as §5, with “CEM-SS” for “FIG. 6: Peptide N7 and N9 enhance HIV DNA synthesis, nuclear migration, and integration. (A) CEM-SS”, “migration.” for “migration. (B)”

[11] = test system: HIV-1; details: Rev-CEM-GFP; 2 h infection; 2 days post infection; viable (low PI) cells; HIV alone 0.79% (N7 experiment), 1.95% (N9 experiment)
Description: (A) The HIV Rev-dependent indicator cell, Rev-CEM-GFP, was not infected (+Cell) or infected with HIV-1 (+HIV), or pre-treated with peptide N7, and then infected with HIV-1 (N7+HIV). Following infection for 2 hours, cells were washed to remove the virus and the peptide. Viral replication was measured at 2 days post infection by flow cytometry. […] PI, propidium iodide, was added before flow cytometry for cytotoxicity control. GFP+ cells were counted only when the cells are viable (low PI staining). (B) Effects of peptide N9 were similarly measured.
The HIV Rev-dependent indicator cell, Rev-CEM-GFP, was not infected (+Cell) or infected with HIV-1 (+HIV), or pre-treated with peptide N7, and then infected with HIV-1 (N7+HIV). Following infection for 2 hours, cells were washed to remove the virus and the peptide. Viral replication was measured at 2 days post infection by flow cytometry.
PI, propidium iodide, was added before flow cytometry for cytotoxicity control. GFP+ cells were counted only when the cells are viable (low PI staining).

[12] = test system: HIV; test: HIV infection of resting CD4 T cells, viral p24 release; type: cell-based
Description: FIG. 7: Peptide N9 promotes HIV infection of resting CD4 T cells. Resting CD4 T cells were treated with N9, and then infected with HIV for 2 hours. Following infection, cells were washed, and culture in the absence of T cell activation and N9. Viral p24 release was measured. As controls, cells were culture with the addition of IL-7 (daily addition), or with a scrambled peptide, or only in the culture medium.
The ability of N9 to stimulate HIV infection of blood resting CD4 T cells was also tested. Resting CD4 T cells are relatively resistant to HIV infection. The lack of activity in the cortical actin limits viral early steps in the infection of resting T cells (Yoder et aI., 2008).

**Q.** With `CCN(CC)CCCC(C)Nc1nc(C)cc(Nc2ccc3nc(C)cc(N)c3c2)n1` (stereo not shown) [NSC23766] as the molecule, how does the IC50 [1] read?
**A.** The IC50 was 22 µM.

**Q.** What about the Body weights [2] of the same molecule?
**A.** Its Body weights is “increased”.

**Q.** And the Survivability [2]?
**A.** The Survivability was “higher”.

**Q.** What about the “Titer of IAV in lung tissue” value [2] of the same molecule?
**A.** The value was “reduce titer”.

**Q.** Which HIV-1 replication [3] does the source give for `O=C1CSC(c2cccc(Br)c2)N1c1cc(Cl)ccc1O` (stereo not shown) [CK-548] here?
**A.** The HIV-1 replication was “dramatically reduced”.

**Q.** For `C=C1[C@@H](C)[C@H]2[C@H](Cc3ccccc3)NC(=O)[C@]23[C@H](OC(C)=O)/C=C/[C@@](C)(O)C(=O)[C@@H](C)C/C=C/[C@H]3[C@@H]1O` [CCD, cytochalasin D], which “Reduction of nuclear accumulation of late RT products” value [4] is on record?
**A.** Its value is 25 fold.

**Q.** With “RRRRRRRR(G/A)0-20AGRDLTDYLMKILTERGYSF [Peptide N10]” as the molecule, how does the Cell killing [5] read?
**A.** The Cell killing was “killing of T cells”.

**Q.** Which “Surface CXCR4 receptor density” value [6] does the source give for “RRRRRRRR(G/A)0-20QIMFETENTPAMYVAIQAVL [Peptide N7]” here?
**A.** The value was “drastically up-regulate”.

**Q.** And the “Surface CD4 receptor density” value [7]?
**A.** The value was “moderate up-regulation”.

**Q.** And the Cofilin activation [8]?
**A.** Its Cofilin activation is “briefly triggers cofilin activation”.

**Q.** And the Actin polymerization/depolymerization [9]?
**A.** The Actin polymerization/depolymerization was “actin depolymerization”.

**Q.** And the “HIV DNA synthesis” value [10]?
**A.** The value was “enhance”.

**Q.** And the “HIV nuclear migration (2-LTR circles)” value [10]?
**A.** Its value is “enhance”.

**Q.** What about the “HIV DNA integration” value [10] of the same molecule?
**A.** The value was “enhance”.

**Q.** What about the “HIV infection, percentage of GFP+ cells” value [11] of the same molecule?
**A.** The value was 15.5%.

**Q.** Which results are given for “RRRRRRRR(G/A)0-20HTVRIYEGYALRHAILRLDL [Peptide N9]”?
**A.** Actin polymerization/depolymerization [9]: modulate; HIV DNA synthesis [10]: enhance; HIV nuclear migration (2-LTR circles) [10]: enhance; HIV DNA integration [10]: enhance; Stimulation of viral infection compared with IL-7 (administered daily) ([12]; early time): more potent; HIV infection of resting T cells (p24 release) ([12]; single-dosage treatment prior to infection, no T cell activation or cytokine stimulation): drastically stimulated; HIV infection, percentage of GFP+ cells [11]: 14.07%
